Results taken from patent EP0089767A1, “Acid addition salts of a penicillanic acid derivative” (UPJOHN LIMITED, priority 1982, dated 1983).
Structures can show the parent of a compound that is named as a salt.

Experiments:
[1] = system: S. aureus; assay: Antibiotic potency: CD50 in mice challenged with a lethal dose of microorganism; format: in vivo; settings: oral intubation at 0, 24, 48 and 72 hours after interperitoneal challenge with S. aureus, dose curing 50% of mice, mean (95% confidence limits)
Method: (§1) The antibiotic potency of the salts of the present invention is illustrated by the data below providing CD50's of the various antibiotic agents, dissolved in inert vehicle, when administered to mice by oral intubation at 0, 24, 48, and 72 hours after challenge of the mice with an interperitoneally administered dose of microorganism which, in the absence of antibiotic agent, would be lethal. The CD50 for an agent is the dose at which 50% of the mice are cured under such a dosing schedule. In the data below the first number in each entry is the mean value and the numbers in parenthesis are the 95% confidence limits: […]

[2] = system: S. pyrogenes (UC 152); assay: as above; format: in vivo; settings: oral intubation at 0, 24, 48 and 72 hours after interperitoneal challenge with S. pyrogenes (UC 152), dose curing 50% of mice, mean (95% confidence limits); for ED50: Mus musculus
Method: as §1

SMILES | ED50 ([1]; Staphylococcus aureus, po) [µmol/kg] | ED50 [2] [µmol/kg] | CD50 [1] | CD50 [2] | CD50 ([1]; hydrochloride)
CC1(C)S[C@@H]2[C@H](NC(=O)[C@H](N)c3ccccc3)C(=O)N2[C@H]1C(=O)O [ampicillin, 6-[D-(2-amino-2-phenylacetamido)] penicillanicacid] | 2 | 0.49 |  |  | 
CCOC(=O)OC(C)OC(=O)[C@@H]1N2C(=O)[C@@H](NC(=O)[C@H](N)c3ccccc3)[C@H]2SC1(C)C (stereo partly drawn) [bacampicillin 1-naphthalene-sulfonate, Bacampicillin 1-Naphthalenesulfonate] |  |  | 0.74 (0.43-1.3) micromoles/kg | 0.15 (0.10-0.20) micromoles/kg | 
CCOC(=O)OC(C)OC(=O)[C@@H]1N2C(=O)[C@@H](NC(=O)[C@H](N)c3ccccc3)[C@H]2SC1(C)C (stereo partly drawn) [bacampicillin-HCl, bacampicillin hydrochloride] |  | 0.19 |  |  | 1.5 (1.0-2.3) micromoles/kg
